This is an account of results in patent US20010046498A1, “Chimeric prostate-homing peptides with pro-apoptotic activity” (priority 2000, published 2001).

Square brackets hold non-standard residues; d marks the D form. Ends that are not written are not given here. Peptide text beside a SMILES is read from it.

The nature of data set [1]: in vitro. It is filed as cell-based. As to conditions: human; monolayer at 100% confluency; scored at 72 hours; means of three independent experiments; read-out: LC50 DMEC Angiostatic. Here is the method:
(§1) The effect of HPP-1 was assayed on normal human dermal microvessel endothelial cells (DMECs) under the angiogenic conditions of proliferation and cord formation. In addition, the effect of HPP-1 was assayed under the angiostatic condition of a monolayer maintained at 100% confluency (as described below).
(§2) Briefly, dermal microvessel endothelial cells (DMECs) were grown in CADMEC Growth Media™ (Cell Applications, Inc.; San Diego, Calif.). Dermal microvessel endothelial cells were then cultured under three experimental conditions: proliferation, 30% confluency in a growth media supplemented with 500 ng/ml human recombinant vascular endothelial growth factor (VEGF; Pharmingen); no proliferation, 100% confluency in media formulated to maintain a monolayer; and cord formation, 60% confluency (required for induction) in media formulated to induce cord formation. The KS1767 and MDA-MB-435 cells were cultured as described in Arap et al., supra, 1998; Hernier et al., supra, 1994).
(§3) Percent viability and LC50 (Table 1) were determined by apoptotic morphology as described in Ellerby et al., J. Neurosci. 17:6165-6178 (1997). For the percent viability assays, dermal microvessel endothelial cells were treated with 60 μM HPP-1 or control peptide D(KLAKLAK)2. At the indicated time points, cell culture medium was aspirated from adherent cells, and the cells were gently washed once with PBS at 37° C. Subsequently, a 20-fold dilution of the dye mixture (100 μg/ml acridine orange and 100 μg/ml ethidium bromide) in PBS was gently pipetted on the cells, which were viewed on an inverted microscope (Nikon TE 300). […] At least 500 cells were scored for a given time point in each experiment. Percent viability was calculated relative to untreated controls. The LC50 for monolayer, proliferation ([…]), and cord formation were scored at 72 hours.

A short description of data set [2]: Cytotoxicity to eukaryotic cells (lethal concentration for 50% of a cell monolayer). The format is cell-based. As to conditions: human; lethal concentration required to kill 50% of a cell monolayer; read-out: concentration required to kill eukaryotic cells (LC50). The method, then: (§4) Mild swelling was evident at a concentration of 3 μM, two orders of magnitude less than the concentration required to kill eukaryotic cells (approximately 300 μM), as measured by the lethal concentration required to kill 50% of a cell monolayer (LC50; Table 1).
as §3

In data set [3] the test system is rat liver mitochondria. The data set can be described thus: Mitochondrial swelling assay (optical absorbance at 520 nm). The format is biochemical. The method, then:
Mitochondrial swelling assays were performed as follows. Briefly, rat liver mitochondria were prepared as described in Ellerby et al., J. Neurosci. 17:6165-6178 (1997). Peptides were synthesized at higher than 90% purity by HPLC (DLSLARLATARLAI (SEQ ID NO: 204), Coast Scientific, Inc., San Diego, Calif.; all other peptides, AnaSpec, Inc.). Mitochondria were treated with a concentration of 10 μM D(KLAKLAK)2, 10 μM DLSLARLATARLAI negative control peptide (SEQ ID NO: 204), or 200 μM CA^+2 as a positive control. Peptides were added to mitochondria in a cuvette, and swelling was quantified by measuring the optical absorbance at 520 nm.

Data set [4] concerns caspase-3 processing in rat liver mitochondria suspended in normal cytosolic extract. In words: Mitochondria-dependent cell-free apoptosis (caspase-3 processing immunoblot). The format is biochemical. As to conditions: 100 μM peptide, 2 hours, in the presence of mitochondria. The method, then:
The D(KLAKLAK)2 peptide was assayed for the ability to activate mitochondria-dependent apoptosis in a cell-free system composed of normal mitochondria suspended in normal cytosolic extract (Ellerby et al., J. Neurosci. 17:6165-6178 (1997)).
The cell-free apoptosis assays were performed essentially as follows. The cell-free systems were reconstituted as described in Ellerby et al., supra, 1997, and, for mitochondria-dependent reactions, rat liver mitochondria were suspended in normal (non-apoptotic) cytosolic extract prepared from dermal microvessel endothelial cells. After adding peptides at a concentration of 100 μM and incubating for 2 hours at 30° C. or 37° C., mitochondria were removed by centrifugation, and the supernatant analyzed by SDS/PAGE immunoblotting on a 12% gel (Biorad; Hercules, Calif.). Proteins were transferred to PVDF membranes (Biorad) and incubated with anti-caspase-3 antibody (Santa Cruz Biotechnology; Santa Cruz, Calif.), followed by ECL detection (Amersham; Arlington Heights, Ill.).

Data set [5] concerns dermal microvessel endothelial cells. The data set can be described thus: Mitochondrial morphology of proliferating DMECs (MitoTracker Red / DAPI). It is filed as cell-based, human. As to conditions: 60 μM peptide, 24 hours. Here is the method: Mitochondrial morphology of dermal microvessel endothelial cells was assessed in proliferating cells after treatment with 60 μM HPP-1, […]-GG-D(KLAKLAK)2 or untargeted D(KLAKLAK)2 as follows. Dermal microvessel endothelial cells were stained after 24 and 72 hours treatment with peptide by incubation for 30 min at 37° C. with 100 nM mitochondrial stain MitoTracker Red™ (Molecular Probes, Inc., Eugene Oreg.) and 500 nM of the nuclear stain DAPI (Molecular Probes, Inc.). Mitochondria were subsequently visualized using fluorescence microscopy (100×) under an inverted microscope using a triple wavelength filter set (Nikon).

Data set [6] deals with normal human dermal microvessel endothelial cells (DMECs). It is filed as cell-based. Further details: dose or concentration left out as unconfirmed. The conditions noted are these: proliferation or cord formation.
The test system of data set [7] is normal mouse prostate. In words: Prostate-selective apoptosis (TUNEL staining). The format is in vivo. As to conditions: single dose of 250 μg peptide/mouse; 24 hours. Here is the method:
The ability of the SMSIARL peptide (SEQ ID NO: 207) to deliver a pro-apoptotic peptide, D(KLAKLAK)2, to the prostate was analyzed. Briefly, SMSIARL-GG-D(KLAKLAK)2 chimeric peptide or control material was administered as a single dose of 250 μg peptide/mouse, and TUNEL staining was performed on tissues obtained 24 hours later.

Data set [8] deals with prostate cancer in TRAMP mice. In words: Treatment of TRAMP mice (transgenic prostate cancer). The format is in vivo. The conditions noted are these: 250 μg/dose; 10 mice per group. Here is the method: TRAMP mice develop prostate cancer under the influence of a transgene as described in Gingrich et al., supra, 1996. SMSIARL-GG-D(KLAKLAK)2 chimeric peptide was assayed for the ability to suppress cancer development in the TRAMP mice. Treatment was initiated at 12 weeks of age with mice (10 per group) receiving SMSIARL-GG-D(KLAKLAK)2 peptide or control peptide at 250 μg/dose every other week for a total of 10 doses. Four mice, which had no visible tumor, were eliminated from the SMSIARL-GG-D(KLAKLAK)2 group after dying within minutes after the injection.

Data set [9] has as its system normal human dermal microvessel endothelial cells (DMECs). The data set can be described thus: in vitro. It is filed as cell-based. As to conditions: controls and alternative prototype; data not shown. The method, then: as §1, §2, §3
Data set [10] deals with breast carcinoma xenografts. In words: Competition of phage homing by co-injected free peptide.
For data set [11], the system named is eukaryotic cells. In words: Cytotoxicity to eukaryotic cells (lethal concentration for 50% of a cell monolayer). The format is cell-based. The method, then:
as §4, §3

Data set [12] has as its system human 435 breast carcinoma tumor. In words: In vivo targeting of RGD phage to breast tumor. Further details: species or system nude mice. The conditions noted are these: coinjection of 500 μg free peptide. Here is the method:
Human 435 breast carcinoma cells were inoculated into the mammary fat pad of nude mice. When the tumors attained a diameter of about 1 cm, phage expressing a specific RGD-containing peptide were administered to the tumor bearing mouse. Similar results to those discussed below also were obtained with nude mice bearing tumors formed by implantation of human melanoma C8161 cells or by implantation of mouse B16 melanoma cells.
1×10^9 phage expressing the RGD-containing peptide, […] (SEQ ID NO: 1; see, Koivunen et al., supra, 1995) or control (insertless) phage were injected intravenously (iv) into the mice and allowed to circulate for 4 min. The mice then were snap frozen or perfused through the heart while under anesthesia, and various organs, including tumor, brain and kidney, were removed and the phage present in the organs was quantitated (see U.S. Pat. No. 5,622,699; Pasqualini and Ruoslahti, supra, 1996).

Data set [13] relates to bacteria. The conditions noted are these: Javadpour et al. 1996; cited from earlier work.
Data set [14] deals with prostate. In words: In vivo panning of X7 phage library, prostate versus brain. Set-up: species or system mice. The conditions noted are these: phage displayed peptide. Here is the method: An X7 library was injected into mice, and sequences isolated that were preferentially found in prostate as compared to brain as described in WO 99/46284.
Data set [15] concerns prostate tissue. In words: Prostate homing of SMSIARL phage after intravenous injection. As to conditions: coinjection. It is filed as in vivo, mice. From the text:
Using in vivo screening of a heptapeptide phage library, a prostate-homing peptide has been identified that concentrates in the prostate 35-fold more than in various other tissues.

For `CC(C)C[C@@H](NC(=O)[C@H](N)CCCCN)C(=O)N[C@H](C)C(=O)N[C@H](CCCCN)C(=O)N[C@H](CC(C)C)C(=O)N[C@H](C)C(=O)N[C@H](CCCCN)C(=O)N[C@H](CCCCN)C(=O)N[C@H](CC(C)C)C(=O)N[C@H](C)C(=O)N[C@H](CCCCN)C(=O)N[C@H](CC(C)C)C(=O)N[C@H](C)C(=O)N[C@H](CCCCN)C(=O)O` [D(KLAKLAK)2], the values for the CC50 at 72 h in [1] and in data set [2] were 492 µM and about 300 µM, respectively. Besides, the values for the mitochondrial swelling result in data set [3] (3 μM peptide) and in data set [3] (10 μM peptide) were “Mild swelling” and “marked mitochondrial swelling”, respectively. For the same compound, the “caspase-3 processing in cell-free system” value in [4] was “characteristic caspase-3 processing the active protease was observed”. The mitochondrial morphology result in [5] is recorded as “remained morphologically normal”. For the same compound, the “percent viability with time relative to untreated controls” value in data set [6] is given as “negligible loss in viability”.

As to `CC[C@H](C)[C@H](NC(=O)[C@H](CO)NC(=O)[C@H](CCSC)NC(=O)[C@@H](N)CO)C(=O)N[C@@H](C)C(=O)N[C@@H](CCCNC(=N)N)C(=O)N[C@@H](CC(C)C)C(=O)NCC(=O)NCC(=O)N[C@H](CCCCN)C(=O)N[C@H](CC(C)C)C(=O)N[C@H](C)C(=O)N[C@H](CCCCN)C(=O)N[C@H](CC(C)C)C(=O)N[C@H](C)C(=O)N[C@H](CCCCN)C(=O)N[C@H](CCCCN)C(=O)N[C@H](CC(C)C)C(=O)N[C@H](C)C(=O)N[C@H](CCCCN)C(=O)N[C@H](CC(C)C)C(=O)N[C@H](C)C(=O)N[C@H](CCCCN)C(=O)O` [SMSIARL-GG-D(KLAKLAK)2] (H-SMSIARLGG[dK][dL][dA][dK][dL][dA][dK][dK][dL][dA][dK][dL][dA][dK]-OH), the “apoptosis in other tissues such as testis, kidney or brain (TUNEL)” value in data set [7] is listed as “no evidence of increased apoptosis”. Further, the “mice dying within minutes after the injection” value in data set [8] is reported as “Four”.

Turning to “CARAC-GG-D(KLAKLAK)2 [reference compound]”, the “effect on viability of dermal microvessel endothelial cells, compared with other peptide” value in [9] is recorded as “results similar to D(KLAKLAK) 2”.

Take “CGRNC-GG-D(KLAKLAK)2 [reference compound]”: in data set [9], the “effect on viability of dermal microvessel endothelial cells, compared with other peptide” value is given as “results similar to D(KLAKLAK) 2”.

For “CNGRC (not fully specified; cysteine pairing not given here)”, the “effect of co-injected peptide on homing of […] phage” value in [10] is given as “did not inhibit”. Further, the “effect of co-injected peptide on accumulation of NGR phage in tumor” value in [10] (phage expressing CNGRCVSGCAGRC) is reported as “inhibited”.

On to “DLSLARLATARLAI [non-α-helix forming negative control peptide]”, for which the “lethality to eukaryotic cells” value in [11] is given as “not lethal”. Moreover, the mitochondrial swelling result in data set [3] (10 μM peptide) is on record as “did not induce mitochondrial swelling”. In addition, the “caspase-3 processing in cell-free system” value in data set [4] was “inactive”.

Regarding GRGESP, the “reduction of phage in the tumor by coinjected free peptide” value in data set [12] is listed as “essentially had no effect”.

Consider “KLAKLAKKLAKLAK [synthetic antimicrobial 14-mer of Javadpour et al]”, for which the “concentration that kills bacteria relative to concentration required to kill eukaryotic cells” value in data set [13] was “two orders of magnitude lower”.

As to SMSIARL [prostate homing peptide], the “enrichment in prostate as compared to brain” value in [14] is reported as 34 fold. The “effect of coinjected synthetic peptide on prostate-selective phage homing” value in [15] is “inhibited the prostate-selective homing of phage”.

In the case of VSFLEYR [prostate homing peptide], in [14], the “enrichment in prostate as compared to brain” value stood at 17 fold.
